Experimental data reported in patent US4145444A, “Anti-inflammatory agent of benzoyl derivative” (priority 1977, dated 1979).
Like-named read-outs stand apart in the source and are kept apart here.

Experiments:
hind paws of male rats = assay: Anti-inflammatory effect: acute carragheenin edema method; type: in vivo; details: Rattus norvegicus; for inhibition in vivo at 100 mg/kg: read-out: Anti-inf.: edema inhibition rate
Procedure: The edema was induced by subcutaneous injection of 1% carragheenin suspension in saline to the hind paws of male rats weighting 150 to 180 g. Each sample was orally given at the dosage of 100 mg/kg just before the inoculation of carragheenin.

platelet = assay: Blood platelet aggregation inhibiting effect (collagen-induced); type: cell-based, rabbits; details: Oryctolagus cuniculus, Platelet; 10^-4 mole, collagen inducer, rabbit PRP; read-out: Blood platelet agg. inh.: percentage inhibition of platelet aggregation
Excerpt: Male rabbits (Japan original white strain 3.3 to 3.6 kg) were anesthetized with Thiopental sodium and blood was sampled from the carotid artery.

thrombus = assay: Inhibiting effect on thrombosis (by-pass between left juglar vein and right carotid artery, silk thread); type: in vivo, SD type male rates; details: Rattus norvegicus, read-out: Thrombosis inh.: thrombosis inhibition rate
Procedure: The inhibiting effects of the samples of the invention on thrombosis were tested by the following test method.
A 0.5 ml of 50 μ/ml of the heparin physiological saline was added through the polyethylene tube before the first blood circulation. After the blood circulation for 15 minutes, the circulation was stopped in the middle of the tubing at artery side with a pinch cock.
Then, 0.2 ml of the heparin physiological saline was added to remove the blood coagulates on the tubing wall and another new polyethylene tubing filled with the heparin solution and containing a piece of new silk thread was attached between the venous and artery tubing ends.
The blood circulation was reestablished by opening the pinch cock. After 15 minutes, the wet weight of thrombus on the silk thread was similarly measured.
In the same manner, the third circulation was performed and wet weight of thrombus measured.
The amount of thrombus was given by the equation A. [formula] Each sample was suspended in an aqueous solution of sodium carboxymethyl cellulose and the oral dose of the suspension (100 mg/kg) was performed at 5 hours before the first blood circulation.
The amount of thrombus after the oral dose of the sample was calculated in the same manner as that of control circulations.
The thrombosis inhibition rate was given by the equation B. [formula]

male mice = assay: Analgesic effect: painful stretchings following intraperitoneal 0.7% acetic acid; details: Mus musculus, po, read-out: Analgesic: percentage diminition of times of painful stretching
Procedure: Each sample was orally administered in the dosage of 100 mg/kg before injection of acetic acid.

[1] = 100 mg/kg oral, carragheenin edema, male rats (Table 2)
[2] = 100 mg/kg oral, 5 hours before first blood circulation, rats

Row | SMILES | inhibition in vivo at 100 mg/kg (hind paws of male rats; [1]) [%] | inhibition at 100 µM (platelet) [%] | inhibition in vivo at 100 mg/kg (thrombus; [2]) [%] | inhibition in vivo at 100 mg/kg (male mice) [%] | ED50 (hind paws of male rats; po, read-out: 50% inhibition ED50 (values in brackets)) [mg/kg] | inhibition in vivo at 100 mg/kg (hind paws of male rats; po) [%] | inhibition in vivo at 100 mg/kg (thrombus; po, 5 h) [%]
1 | CCCCc1ccc(C(=O)c2ccc(OC)cc2)cc1 [compound 18] | 41.6 | 9.3 | 24.2 | 20.1 |  |  | 
2 | CCCCc1ccc(C(=O)c2ccccc2)cc1 [compound 19] | 63.4 | 18.6 | 7.9 | 30.1 |  |  | 
3 | CCCc1ccc(C(=O)c2ccccc2)cc1 [compound 20] | 42.7 | 36.6 | 4.1 | 17.3 |  |  | 
4 | CC(C)c1ccc(C(=O)c2ccccc2)cc1 [compound 21] | 37.3 | 8.6 | 5.4 | 16.1 |  |  | 
5 | CC(C)(C)c1ccc(C(=O)c2ccccc2)cc1 [compound 22] | 36.4 | 9.5 | 7.9 | 8.2 |  |  | 
6 | CCCCCc1ccc(C(=O)c2ccccc2)cc1 [compound 23] | 50.4 | 13.8 | 22.3 | 10.1 |  |  | 
7 | CCCCCCc1ccc(C(=O)c2ccccc2)cc1 [compound 24] | 37.6 | 10.5 | 24.3 | 47.7 |  |  | 
8 | CCCCCCCc1ccc(C(=O)c2ccccc2)cc1 [compound 25] | 40.8 | 7.8 | 22.1 | 48.6 |  |  | 
9 | CCCCCCCCc1ccc(C(=O)c2ccccc2)cc1 [compound 26] | 47.2 | 3.1 | 24.8 | 35.9 |  |  | 
10 | O=C(c1ccccc1)c1ccccc1 [compound 27] |  | 25.7 |  | 13.2 | 120 | 47.7 | 25.9
11 | CCCCc1ccc(C(=O)C(=O)c2ccccc2)cc1 [compound 29] | 44.7 | 11.1 | 15.3 | 2.7 |  |  | 
12 | Cc1ccc(C(=O)c2ccccc2)c(C)c1C [compound 31] | 35.4 | 18.2 | 23.5 | 9.5 |  |  | 
13 | Cc1cc(C)c(C(=O)c2ccccc2)cc1C [compound 32] | 47.7 | 12.4 | 25 | 26.2 |  |  | 
14 | CCc1ccc(C(=O)c2ccc(C)cc2)cc1 [compound 33] | 43.9 | 20.5 | 28.3 | 15.5 |  |  | 
15 | CCCc1ccc(C(=O)c2ccc(C)cc2)cc1 [compound 34] | 43.1 | 16.4 | 24.5 | 12.1 |  |  | 
16 | CCCCc1ccc(C(=O)c2ccc(C)cc2)cc1 [compound 35] | 48.5 | 11.3 | 2.65 | 17.8 |  |  | 
17 | CCCCCCc1ccc(C(=O)c2ccc(C)cc2)cc1 [compound 36] | 34.8 | 15.1 | 28.1 | 13.7 |  |  | 
18 | Cc1ccc(C(=O)c2ccccc2)c(C)c1 [compound 37] | 39.6 | 17.4 | 5.3 | 9.8 |  |  | 
19 | Cc1ccc(C)c(C(=O)c2ccccc2)c1 [compound 38] | 37.5 | 20.9 | 8.3 | 18 |  |  | 
20 | CCCCc1ccc(C(=O)Cc2ccccc2)cc1 [compound 39] | 35.9 | 2.6 | 15.9 | 23.1 |  |  | 
21 | CCCCc1ccc(C(=O)c2ccccc2C)cc1 [compound 40] | 58.1 | 11.9 | 30.3 | 20.3 |  |  | 

Row | SMILES | inhibition in vivo at 100 mg/kg (hind paws of male rats; [1]) [%] | inhibition at 100 µM (platelet) [%] | inhibition in vivo at 100 mg/kg (thrombus; [2]) [%] | inhibition in vivo at 100 mg/kg (male mice) [%] | ED50 (hind paws of male rats; po, read-out: 50% inhibition ED50 (values in brackets)) [mg/kg] | inhibition in vivo at 100 mg/kg (hind paws of male rats; po) [%] | inhibition in vivo at 100 mg/kg (thrombus; po, 5 h) [%]
22 | CCCCCc1ccc(C(=O)c2ccccc2C)cc1 [compound 41] | 47.4 | 14.4 | 28.5 | 14.6 |  |  | 
23 | CCCCOc1ccc(C(=O)c2ccccc2)cc1 [compound 42] | 35.8 | 4.4 | 10.7 | 26.8 |  |  | 
24 | CCCCc1ccc(C(=O)c2ccc(CCCC)cc2)cc1 [compound 43] | 34 | 3.5 | 86 | 0 |  |  | 
25 | CCCCc1ccc(C(=O)c2ccccc2Cl)cc1 [compound 44] | 57.7 | 10.5 | 35.6 | 15.6 |  |  | 
26 | CCCCCc1ccc(C(=O)c2ccc(OC)cc2)cc1 [compound 45] | 37.8 | 17.7 | 30.8 | 12.5 |  |  | 
27 | CCCCc1ccc(C(=O)c2ccc(F)cc2C)cc1 [compound 46] | 43.4 | 16.5 | 34.5 | 13.4 |  |  | 
28 | O=C(Cc1ccccc1)c1ccccc1 [compound 47] |  | 18.3 |  | 13.1 |  | 20.9 | 15.6
29 | Cc1ccc(C(=O)Cc2ccccc2)cc1 [compound 48] | 26 | 20.5 | 18.3 | 12.5 |  |  | 
30 | CCCc1ccc(C(=O)Cc2ccccc2)cc1 [compound 49] | 10.7 | 28.5 | 13.4 | 18.2 |  |  | 
31 | CCCCCCCCCCc1ccc(C(=O)Cc2ccccc2)cc1 [compound 50] | 25.5 | 8.7 | 28.3 | 16.4 |  |  | 
32 | CCCCCCCCCCCc1ccc(C(=O)Cc2ccccc2)cc1 [compound 51] | 24.6 | 9.5 | 13.5 | 18.3 |  |  | 
33 | CCCCCCCCCCCCc1ccc(C(=O)Cc2ccccc2)cc1 [compound 52] | 25.5 | 6.8 | 10.1 | 12.5 |  |  | 
34 | O=C(C(=O)c1ccccc1)c1ccccc1 [compound 53] |  | 10.1 |  | 14.2 |  | 20.3 | 19.2
35 | Cc1ccc(C(=O)C(=O)c2ccccc2)cc1 [compound 54] |  | 15.4 |  | 11.3 |  | 25.5 | 20.3
36 | CCc1ccc(C(=O)C(=O)c2ccccc2)cc1 [compound 55] | 29 | 23.3 | 16.4 | 15.8 |  |  | 
37 | CCCCCCc1ccc(C(=O)C(=O)c2ccccc2)cc1 [compound 56] | 14.9 | 20.3 | 15.1 | 20.5 |  |  | 
38 | COc1ccc(C(=O)Cc2ccccc2)cc1 [compound 57] | 16.1 | 12.5 | 6.5 | 10.3 |  |  | 
39 | CCCOc1ccc(C(=O)Cc2ccccc2)cc1 [compound 58] | 15.3 | 20.1 | 14.6 | 19.8 |  |  | 
40 | CCCCCOc1ccc(C(=O)Cc2ccccc2)cc1 [compound 59] | 20.7 | 25.6 | 14.1 | 22.8 |  |  | 
41 | COc1ccc(C(=O)Cc2ccc(Cl)cc2)cc1 [compound 60] | 13.2 | 4 | 12.3 | 6.3 |  |  | 
42 | CCCCOc1ccc(C(=O)Cc2ccc(Cl)cc2)cc1 [compound 61] | 16.7 | 15.8 | 8.5 | 15.1 |  |  | 
